Measured values as given in patent US20210275646A1, “PHARMACOLOGIC TREATMENT FOR RIGHT VENTRICULAR FAILURE” (The Trustees of Columbia University in the City of New York, priority 2018, published 2021).

What was measured:
Format in all cases: cell-based
[1] = test system: neonatal rat ventricular myocytes (NRVMs); assay: LC3-II/I ratio (Western) in NRVMs treated with bafilomycin A or chloroquine, canonical versus non-canonical autophagy; details: BafA 100 nM, 1 h; si-Wipi1 and si-scramble transfected NRVMs
[2] = test system: neonatal rat ventricular myocytes (NRVMs); assay: MitoSOX Red analysis of mitochondrial superoxide level; details: Aldo 1 μM 48 h, si-scramble control NRVMs
Procedure: Neonatal rat ventricular myocytes (NRVMs) were transfected with scramble or Wipi1-specific siRNAs and then stimulated with aldosterone (Aldo, 1 μM, 48 h) or hydrogen peroxide (H2O2, 50 μM, 2 h).
(§1) At 24 h following isolation, NRVMs were transfected with siRNAs using the Dharmafect #1 transfection reagent according to the manufacturers protocol (Dharmacon). NRVMs were plated at a density of ˜10^5 cells/cm^2 and transfected with 10 nM of a pool of either non-targeting siRNA (siRNA-scramble control) or siRNAs against the rat Wipi1 gene (siRNA-Wipi1). All siRNAs were ON-TARGETplus SMARTpool siRNAs (Dharmacon). Following a 24 h transfection period, the medium was changed to serum-free DMEM:F12 supplemented with penicillin (100 units/ml)/streptomycin (100 μg/ml). After ˜12 h of serum-starvation, the cells were incubated with aldosterone (250 μg/ml) in serum-free DMEM:F12 culture medium for 48 h at 37° C., 5% Ca. Serum-free DMEM:F12 culture medium without any aldosterone was used as a comparative control to neurohormone activation.
Mitochondrial superoxide level was monitored with the MitoSOX™ Red mitochondrial superoxide indicator for live-cell imaging (Molecular Probes). […] The red fluorescent signal was measured with ImageJ software and normalized to the brightfield signal.

[3] = test system: neonatal rat ventricular myocytes (NRVMs); assay: MTT assay of cell viability
Procedure: To assess NRVM viability, the Vybrant MTT cell proliferation assay kit was used (Molecular probes). Initially, NRVM were seeded on 96-well plates at ˜3×10^4 cells/well (˜10^5 cells/cm^2, the same density as in other assays) and were treated identically as in the siRNA transfection assays (including transfection, serum starvation and neurohormonal stimulation). In addition, increasing number of cells ranging from 2×10^4 to 14×10^4 were used to create a standard curve and to calculate the linearity between absorbance at 595 nm and cell number. Prior to labelling with MTT, the medium was removed and 100 μl of fresh medium was added to each well. The same amount of medium (100 μl) without cells was used as negative control (blank). The cells and the negative control were labeled with 10 μl of 12 mM MTT/well and were incubated at 37° C. for 4 h. Subsequently, 100 μl of SDS-HCL solution was added to each well, mixed thoroughly and incubated for 4 h at 37° C. Finally, the absorbance at 595 nm was measured on a plate reader and the % of cell viability was calculated using the formula:
% of viability=(A595sample/A595reference)×100

[4] = test system: neonatal rat ventricular myocytes (NRVMs); assay: RT-qPCR of transcript expression in siRNA-transfected NRVMs with or without aldosterone
Procedure: Total RNA were extracted from human and mouse tissues and cultured neonatal rat ventricular myocytes (NRVMs) using the Tissue RNA Purification Kit (Norgen Biotek) and the TRIzol reagent (Invitrogen) respectively, according to the manufacturer's instructions. RNA was quantified with the NanoDrop-2000c instrument (Thermo Scientific), and cDNA synthesis was performed with iScript reverse transcription Supermix (BioRad). Quantitative RT-PCR was performed on a CFX96 thermal cycler using the iTac Universal SYBR green Supermix (Biorad) and specific primers. Gene expression was normalized to Rps13, and relative mRNA expression was quantified using the ΔΔCt method. For data robustness and reproducibility, target genes were also normalized to Rps15.
(§2) Neonatal Sprague-Dawley rats were euthanized by decapitation within the first 24 h after birth and beating hearts heart fragments were rinsed in 1×PBS without pen/strep and digested in 0.1% Trypsin solution in 1×PBS (0.8 ml of 0.1% Trypsin solution per heart) for 15 min at 37° C. The supernatant was collected and the remaining tissue was further digested repeatedly for a total of 10 times, with serial collection of supernatant. Digestion was stopped on ice with 10% FBS, and cells were collected from pooled supernatant by centrifugation at 1500 rpm for 5 min at room temperature. The cell pellet was resuspended in an adequate volume of complete medium. Cells were counted and plated in 10 cm dishes for ˜1 h at 37° C., 5% CO2 at a density of 10×10^6 cells per plate (pre-plating). During this pre-plating step, non-myocytes including fibroblasts adhere to the plate, while NRVMs remain in suspension. The supernatant cells were subsequently seeded on protamine sulfate coated dishes (10^5 cells/cm^2) and were left to attach for 12 h. NRVM primary cultures were maintained in MEM medium supplemented with 10% FBS, penicillin (100 units/ml)/streptomycin (100 μg/ml) (Gibco-Fisher Scientific). 1-β-D-Arabinofuranosyl-cytosine (AraC 20 μM, Calbiochem-Sigma) was also added to the culture medium to inhibit fibroblast proliferation.
as §1, with “After ˜12 h of serum-starvation, the cells were incubated with aldosterone (250 μg/ml) in serum-free DMEM:F12 culture medium for 48 h at 37° C., 5% Ca.” left out

[5] = test system: neonatal rat ventricular myocytes (NRVMs); assay: Western blot of protein expression in siRNA-transfected NRVMs with or without aldosterone
Procedure: Total proteins were extracted from tissues and NRVMs with the T-PER lysis buffer (Thermo Scientific) supplemented with the Halt Protease and Phosphatase Inhibitor Cocktail (Thermo Scientific). Protein extraction from mouse tissues was performed using a BeadBug Benchtop Homogenizer and zirconium beads (Sigma). Protein quantification was performed with the BCA reagent (Pierce). Total protein samples were resolved on NuPAGE 4-12% Bis-Tris gradient gels (Invitrogen) and transferred to 0.2 μm Nitrocellulose membranes (Biorad) for immunoblotting. Membranes were stained with the LI-COR Revert Total Protein Stain kit and analyzed as per manufacturer's instructions. Membranes were blocked and then incubated with primary antibodies as detailed in Table 2 at 4° C. overnight. Membranes were then washed and incubated with the appropriate LI-COR secondary antibody. Membranes were imaged using the ODYSSEY-Classic infrared system from LI-COR. Protein expression was normalized to total protein.
as §2, §1

[6] = NRVMs, si-Wipi1 vs si-scramble, with or without aldosterone
[7] = aldosterone 48 h, si-scramble control NRVMs, serum starved

| SMILES | LC3-II/I ratio [1] | mitochondrial superoxide levels [2] | cell viability [3] | Snap47 or Prdx5 transcript expression [4, 6] | Map4 transcript levels ([4]; aldosterone stimulation, in either si-Wipi1 or si-scramble NRVMs) | Hspb6 transcript expression ([4]; aldosterone, both si-Wipi1 and si-scramble NRVMs) | expression of Nppa, Nppb, Acta1, and Myh7 (fetal gene program) ([4]; si-scramble control NRVMs, Aldo 1 μM 48 h) | Hspb6 protein expression [5, 6] | Snap47 or Prdx5 protein expression [5, 6] | Ser16-HSPB6 phosphorylation ([5]; aldosterone 48 h, si-scramble NRVMs, serum starved) | BECN1 expression [5, 7] | LC3-lipidation [5, 7] | Map4 protein expression ([5]; aldosterone, si-scramble control NRVMs) |
| --- | --- | --- | --- | --- | --- | --- | --- | --- | --- | --- | --- | --- | --- |
| CO/C1=C\C(C)=C\[C@@H](C)[C@@H](O)[C@@H](C)C/C(C)=C/C=C/[C@H](OC)[C@@H]([C@@H](C)[C@@H](O)[C@H](C)[C@@]2(O)C[C@@H](O)[C@H](C)[C@@H](C(C)C)O2)OC1=O [BafA, bafilomycin A] | increased |  |  |  |  |  |  |  |  |  |  |  |  |
| C[C@]12CCC(=O)C=C1CC[C@@H]1[C@@H]2[C@@H](O)C[C@]2(C=O)[C@@H](C(=O)CO)CC[C@@H]12 [aldosterone] |  | increased | Neither aldosterone stimulation nor silencing Wipi1 negatively impacted | Neither silencing Wipi1 nor stimulation with aldosterone affected | did not affect | stimulated | significantly increased | consistent with transcript data | Neither silencing Wipi1 nor stimulation with aldosterone affected | did decrease | did not affect | did not affect | did induce |
